Measured values as given in ChEMBL document CHEMBL5584219 (Bioorg Med Chem Lett, 2024).
The source made the active and inactive calls. No cut-off for these calls is given here.

Legend:
[1] = system: PC-9; experiment: Antiproliferative activity against human PC-9 cells assessed as inhibition of cell growth incubated for 48 hrs in presence of erlotinib by MTT assay; assay type: functional, cell-based; conditions: PC-9, 48 h
[2] = system: NCI-H460; experiment: Antiproliferative activity against human NCI-H460 cells assessed as inhibition of cell growth incubated for 48 hrs by MTT assay; assay type: functional, cell-based; conditions: NCI-H460, 48 h
[3] = Antiproliferative activity against human PC9 Gefitinib-resistant (GR) cell assessed as inhibition of cell growth incubated for 48 hrs in presence of erlotinib by MTT assay; assay type: functional, cell-based; conditions: Gefitinib-resistant PC9, 48 h
[4] = system: A549; experiment: Antiproliferative activity against human A549 cells assessed as inhibition of cell growth incubated for 48 hrs by MTT assay; assay type: functional, cell-based; conditions: A549, 48 h
[5] = Antiproliferative activity against human PC9 Gefitinib-resistant (GR) cell assessed as inhibition of cell growth incubated for 48 hrs by MTT assay; assay type: functional, cell-based; conditions: Gefitinib-resistant PC9, 48 h
[6] = system: NCI-H460; experiment: Antiproliferative activity against human NCI-H460 cells assessed as inhibition of cell growth incubated for 48 hrs in presence of erlotinib by MTT assay; assay type: functional, cell-based; conditions: NCI-H460, 48 h
[7] = system: PC-9; experiment: Antiproliferative activity against human PC-9 cells assessed as inhibition of cell growth incubated for 48 hrs by MTT assay; assay type: functional, cell-based; conditions: PC-9, 48 h
[8] = system: A549; experiment: Antiproliferative activity against human A549 cells assessed as inhibition of cell growth incubated for 48 hrs in presence of erlotinib by MTT assay; assay type: functional, cell-based; conditions: A549, 48 h
[9] = system: A549; experiment: Induction of apoptosis in human A549 cells assessed as upregulation of caspase-3 protein expression at 10 uM incubated for 48 hrs by Western blot analysis; assay type: functional, cell-based
[10] = system: A549; experiment: Induction of apoptosis in human A549 cells assessed as necrotic cells at 10 uM incubated for 48 hrs by annexin V FITC and propidium iodide based flow cytometry (reference value: 1.49 %); assay type: functional
[11] = system: A549; experiment: Induction of apoptosis in human A549 cells assessed as viable cells at 10 uM incubated for 48 hrs by annexin V FITC and propidium iodide based flow cytometry (reference value: 95.6 %); assay type: functional; conditions: read-out: Activity
[12] = system: A549; experiment: Induction of cell cycle arrest in human A549 cells assessed as accumulation of cells at S phase at 10 uM incubated for 48 hrs by flow cytometry analysis (reference value: 46.37%); assay type: functional
[13] = system: A549; experiment: Induction of apoptosis in human A549 cells assessed as increase in p53 protein expression at 10 uM incubated for 48 hrs by Western blot analysis; assay type: functional, cell-based
[14] = system: A549; experiment: Induction of apoptosis in human A549 cells assessed as late apoptotic cells at 10 uM incubated for 48 hrs by annexin V FITC and propidium iodide based flow cytometry (reference value: 0.76 %); assay type: functional
[15] = system: A549; experiment: Induction of apoptosis in human A549 cells assessed as decrease in bcl-2 protein expression at 10 uM incubated for 48 hrs by Western blot analysis; assay type: functional, cell-based
[16] = system: A549; experiment: Induction of apoptosis in human A549 cells assessed as upregulation of caspase-9 protein expression at 10 uM incubated for 48 hrs by Western blot analysis; assay type: functional, cell-based
[17] = system: A549; experiment: Induction of apoptosis in human A549 cells assessed as increase in bax protein expression at 10 uM incubated for 48 hrs by Western blot analysis; assay type: functional, cell-based
[18] = system: A549; experiment: Induction of cell cycle arrest in human A549 cells assessed as accumulation of cells at G0/G1 phase at 10 uM incubated for 48 hrs by flow cytometry analysis (reference value: 53.63%); assay type: functional
[19] = system: A549; experiment: Induction of apoptosis in human A549 cells assessed as downregulation of EGFR expression level at 10 uM incubated for 48 hrs by Western blot analysis; assay type: functional, cell-based
[20] = system: A549; experiment: Induction of apoptosis in human A549 cells assessed as early apoptotic cells at 10 uM incubated for 48 hrs by annexin V FITC and propidium iodide based flow cytometry (reference value: 2.13 %); assay type: functional
[21] = system: PC-9; experiment: Antiproliferative activity against human PC-9 cells assessed as inhibition of cell growth incubated for 48 hrs in presence of 10-hydroxyl-evodiamine by MTT assay; assay type: functional, cell-based; conditions: PC-9, 48 h
[22] = system: A549; experiment: Induction of cell cycle arrest in human A549 cells assessed as accumulation of cells at G0/G1 phase at 10 uM incubated for 48 hrs in presence of 10-hydroxyl-evodiamine by flow cytometry analysis (reference value: 53.63%); assay type: functional
[23] = system: A549; experiment: cells; conditions: Homo sapiens, A549, 48 h
Description: Antiproliferative activity against human A549 cells assessed as inhibition of cell growth incubated for 48 hrs in presence of evodiamine by MTT assay

[24] = cells; conditions: Homo sapiens, Gefitinib-resistant PC9, 48 h
[25] = Antiproliferative activity against human PC9 Gefitinib-resistant (GR) cell assessed as inhibition of cell growth incubated for 48 hrs in presence of evodiamine by MTT assay; assay type: functional, cell-based; conditions: Gefitinib-resistant PC9, 48 h
[26] = system: A549; experiment: Induction of apoptosis in human A549 cells assessed as late apoptotic cells at 10 uM incubated for 48 hrs in presence of 10-hydroxyl-evodiamine by annexin V FITC and propidium iodide based flow cytometry (reference value: 0.76 %); assay type: functional
[27] = system: A549; experiment: Induction of apoptosis in human A549 cells assessed as early apoptotic cells at 10 uM incubated for 48 hrs in presence of 10-hydroxyl-evodiamine by annexin V FITC and propidium iodide based flow cytometry (reference value: 2.13 %); assay type: functional
[28] = system: A549; experiment: cells; conditions: Homo sapiens, A549, 48 h; remark: listed apart in the source
[29] = system: A549; experiment: Induction of apoptosis in human A549 cells assessed as viable cells at 10 uM incubated for 48 hrs in presence of 10-hydroxyl-evodiamine by annexin V FITC and propidium iodide based flow cytometry (reference value: 95.6 %); assay type: functional; conditions: read-out: Activity
[30] = system: A549; experiment: Induction of apoptosis in human A549 cells assessed as necrotic cells at 10 uM incubated for 48 hrs in presence of 10-hydroxyl-evodiamine by annexin V FITC and propidium iodide based flow cytometry (reference value: 1.49 %); assay type: functional
[31] = system: A549; experiment: Induction of cell cycle arrest in human A549 cells assessed as accumulation of cells at S phase at 10 uM incubated for 48 hrs in presence of 10-hydroxyl-evodiamine by flow cytometry analysis (reference value: 46.37%); assay type: functional
[32] = system: PC-9; experiment: Antiproliferative activity against human PC-9 cells assessed as inhibition of cell growth incubated for 48 hrs in presence of evodiamine by MTT assay; assay type: functional, cell-based; conditions: PC-9, 48 h
[33] = system: A549; experiment: Induction of apoptosis in human A549 cells assessed as viable cells at 10 uM incubated for 48 hrs in presence of erlotinib by annexin V FITC and propidium iodide based flow cytometry (reference value: 95.6 %); assay type: functional; conditions: read-out: Activity
[34] = system: A549; experiment: Induction of cell cycle arrest in human A549 cells assessed as accumulation of cells at S phase at 10 uM incubated for 48 hrs in presence of erlotinib by flow cytometry analysis (reference value: 46.37%); assay type: functional
[35] = system: A549; experiment: Induction of apoptosis in human A549 cells assessed as early apoptotic cells at 10 uM incubated for 48 hrs in presence of erlotinib by annexin V FITC and propidium iodide based flow cytometry (reference value: 2.13 %); assay type: functional
[36] = system: A549; experiment: Induction of apoptosis in human A549 cells assessed as necrotic cells at 10 uM incubated for 48 hrs in presence of erlotinib by annexin V FITC and propidium iodide based flow cytometry (reference value: 1.49 %); assay type: functional
[37] = system: A549; experiment: Induction of cell cycle arrest in human A549 cells assessed as accumulation of cells at G0/G1 phase at 10 uM incubated for 48 hrs in presence of erlotinib by flow cytometry analysis (reference value: 53.63%); assay type: functional
[38] = system: A549; experiment: Induction of apoptosis in human A549 cells assessed as late apoptotic cells at 10 uM incubated for 48 hrs in presence of erlotinib by annexin V FITC and propidium iodide based flow cytometry (reference value: 0.76 %); assay type: functional

Question: What does the source list for CN1c2ccccc2C(=O)N2CCc3c([nH]c4ccccc34)[C@H]21?
Answer: IC50 [1]: 2.37 µM; IC50 [2]: 17.1 µM; IC50 [3]: 4.81 µM; IC50 [4]: 24.7 µM; IC50 [5]: 11.3 µM; IC50 [6]: 13.4 µM; IC50 [7]: 10.2 µM; IC50 [8]: 9.19 µM

Question: For COCCOc1cc2ncnc(Nc3cccc(-c4cn(CCOCCOCCOCCNC(=O)Cn5c(C)c(COC(=O)N(C)CCN(C)C(=O)Oc6ccc7[nH]c8c(c7c6)CCN6C(=O)c7ccccc7N(C)[C@H]86)c6c5C(=O)C=C(OC)C6=O)nn4)c3)c2cc1OCCOC, which Activity [9] is on record?
Answer: The Activity was “Active”.

Question: What about the Activity [10] of the same molecule?
Answer: Its Activity is 0.65%.

Question: And the viability at 10 µM [11]?
Answer: Its viability at 10 µM is 77.4%.

Question: And the Activity [12]?
Answer: The Activity was 37.3%.

Question: And the Activity [13]?
Answer: Its Activity is “Active”.

Question: What about the IC50 [2] of the same molecule?
Answer: Its IC50 is 10.6 µM.

Question: What about the Activity [14] of the same molecule?
Answer: The Activity was 1.07%.

Question: What about the IC50 [4] of the same molecule?
Answer: The IC50 was 3.79 µM.

Question: What about the IC50 [5] of the same molecule?
Answer: Its IC50 is 4.14 µM.

Question: What about the Activity [15] of the same molecule?
Answer: Its Activity is “Active”.

Question: What about the Activity [16] of the same molecule?
Answer: The Activity was “Active”.

Question: What about the Activity [17] of the same molecule?
Answer: Its Activity is “Active”.

Question: And the IC50 [7]?
Answer: Its IC50 is 1.14 µM.

Question: And the Activity [18]?
Answer: The Activity was 62.7%.

Question: What about the Activity [19] of the same molecule?
Answer: The Activity was “Active”.

Question: What about the Activity [20] of the same molecule?
Answer: The Activity was 20.9%.

Question: Which Activity [10] does the source give for C#Cc1cccc(Nc2ncnc3cc(OCCOC)c(OCCOC)cc23)c1 [ERLOTINIB] here?
Answer: The Activity was 1%.

Question: What about the IC50 [21] of the same molecule?
Answer: Its IC50 is 1.72 µM.

Question: And the viability at 10 µM [11]?
Answer: Its viability at 10 µM is 93%.

Question: What about the Activity [12] of the same molecule?
Answer: Its Activity is 37.13%.

Question: What about the Activity [22] of the same molecule?
Answer: The Activity was 89.36%.

Question: What about the IC50 [23] of the same molecule?
Answer: The IC50 was 9.19 µM.

Question: What about the IC50 [24] of the same molecule?
Answer: Its IC50 is 3.05 µM.

Question: And the Activity [14]?
Answer: The Activity was 1.21%.

Question: What about the IC50 [4] of the same molecule?
Answer: Its IC50 is 23.5 µM.

Question: And the IC50 [5]?
Answer: The IC50 was 6.92 µM.

Question: And the IC50 [25]?
Answer: Its IC50 is 4.81 µM.

Question: And the Activity [26]?
Answer: The Activity was 2.12%.

Question: And the IC50 [7]?
Answer: The IC50 was 1.8 µM.

Question: And the Activity [27]?
Answer: Its Activity is 34.6%.

Question: And the IC50 [28]?
Answer: The IC50 was 7.74 µM.

Question: And the Activity [18]?
Answer: The Activity was 61.87%.

Question: What about the viability at 10 µM [29] of the same molecule?
Answer: The viability at 10 µM was 62%.

Question: What about the Activity [30] of the same molecule?
Answer: Its Activity is 1.26%.

Question: And the Activity [31]?
Answer: Its Activity is 10.64%.

Question: What about the Activity [20] of the same molecule?
Answer: Its Activity is 4.82%.

Question: And the IC50 [32]?
Answer: The IC50 was 2.37 µM.

Question: Which viability at 10 µM [33] does the source give for CN1c2ccccc2C(=O)N2CCc3c([nH]c4ccc(O)cc34)[C@H]21 here?
Answer: The viability at 10 µM was 62%.

Question: What about the Activity [10] of the same molecule?
Answer: The Activity was 0.34%.

Question: And the Activity [34]?
Answer: Its Activity is 10.64%.

Question: What about the viability at 10 µM [11] of the same molecule?
Answer: Its viability at 10 µM is 70.2%.

Question: What about the Activity [12] of the same molecule?
Answer: Its Activity is 21.77%.

Question: And the IC50 [1]?
Answer: Its IC50 is 1.72 µM.

Question: And the IC50 [2]?
Answer: The IC50 was 27.8 µM.

Question: What about the IC50 [3] of the same molecule?
Answer: Its IC50 is 3.05 µM.

Question: And the Activity [14]?
Answer: The Activity was 1.7%.

Question: What about the IC50 [4] of the same molecule?
Answer: Its IC50 is 11.1 µM.

Question: And the IC50 [5]?
Answer: The IC50 was 10 µM.

Question: What about the IC50 [6] of the same molecule?
Answer: Its IC50 is 12.8 µM.

Question: And the Activity [35]?
Answer: Its Activity is 34.6%.

Question: What about the IC50 [7] of the same molecule?
Answer: The IC50 was 10.7 µM.

Question: And the Activity [18]?
Answer: Its Activity is 78.23%.

Question: And the Activity [36]?
Answer: Its Activity is 1.26%.

Question: And the Activity [37]?
Answer: The Activity was 89.36%.

Question: And the Activity [20]?
Answer: Its Activity is 27.8%.

Question: What about the Activity [38] of the same molecule?
Answer: Its Activity is 2.12%.

Question: And the IC50 [8]?
Answer: The IC50 was 7.74 µM.
